Holding throughout (type): functional
In assay [1] the test system is Staphylococcus epidermidis. Nature of the assay: In vitro antibacterial activity against oxacilline resistant strain Staphylococcus epidermidis 012GO39.
In assay [2] the test system is Enterococcus faecium. Nature of the assay: In vitro antibacterial activity against vancomycin resistant strain Streptococcus faecium 02D3IP1.
For another assay, the system named is Enterococcus faecalis. Description: In vitro antibacterial activity against vancomycin resistant strain Streptococcus faecalis 02D2DU17.
A further assay relates to Streptococcus pyogenes. Nature of the assay: In vitro antibacterial activity against sensitive strain Streptococcus pyogenes 77A.
The test system of another assay is Escherichia coli. Description: In vitro antibacterial activity against Escherichia coli UC 1894.
The test system of assay [3] is Staphylococcus aureus. Description: In vitro antibacterial activity against sensitive strain Staphylococcus aureus SG 511.
Assay [4] concerns Enterococcus faecium. Nature of the assay: In vitro antibacterial activity against sensitive strain Streptococcus faecium M78L.
Assay [5] has as its system Staphylococcus aureus. Nature of the assay: In vitro antibacterial activity against oxacilline resistant strain Staphylococcus aureus O11CB20.

Structures are written as SMILES. In brackets after ≈: the same amount, converted by molar mass.

Our source for the MIC values is ChEMBL document CHEMBL1127945, “5-Aryl-, butenolide, a new class of antibacterial derived from the N-aryl oxazolidinone DUP 721” (1994).

Consider `CC(=O)NC[C@@H]1CC(=O)N(c2ccc(C(C)=O)cc2)C1`, for which the MIC (in assay [1]; with Enterococcus faecium [2]; against Enterococcus faecalis; against Streptococcus pyogenes; against Escherichia coli; with Staphylococcus aureus [3]) was greater than 40 µg/mL each time. In addition, the minimal inhibitory concentration (MIC) (as a rule, the least concentration at which growth counts as inhibited) with Enterococcus faecium [4] was greater than 40 µg/mL.
Regarding `CC(=O)NC[C@H]1C=C(c2ccc(C(C)=O)cc2)C(=O)O1`, the MIC in assay [1] was 2.5 µg/mL (≈ 9.15 µM); against Enterococcus faecium [2] it was 2.5 µg/mL (≈ 9.15 µM); in the assay on Enterococcus faecalis, 2.5 µg/mL (≈ 9.15 µM); against Streptococcus pyogenes, 2.5 µg/mL (≈ 9.15 µM); in the assay with Escherichia coli, greater than 40 µg/mL; with Staphylococcus aureus [3], 1.2 µg/mL (≈ 4.39 µM). Further, the results for the MIC in the assay on Staphylococcus aureus [5] and against Enterococcus faecium [4] were 1.2 µg/mL (≈ 4.39 µM) and 5 µg/mL (≈ 18.3 µM), respectively.
Regarding `CC(=O)NC[C@@H]1CCN(c2ccc(C(C)=O)cc2)C1`, the MIC (in assay [1]; with Enterococcus faecium [2]; against Enterococcus faecalis; against Streptococcus pyogenes; with Escherichia coli; with Staphylococcus aureus [3]) was greater than 40 µg/mL in each case. The compound also had an MIC against Enterococcus faecium [4] greater than 40 µg/mL.
For `CC(=O)NC[C@H]1CN(c2ccc(C(C)=O)cc2)C(=O)O1` [DUP-721], the minimal inhibitory concentration (MIC) in assay [1] was 2.5 µg/mL (≈ 9.05 µM); in the assay with Enterococcus faecium [2], less than 1.2 µg/mL; in the assay with Enterococcus faecalis it was 2.5 µg/mL (≈ 9.05 µM); with Streptococcus pyogenes it was 0.6 µg/mL (≈ 2.17 µM); against Escherichia coli, greater than 40 µg/mL; with Staphylococcus aureus [3] it was 1.2 µg/mL (≈ 4.34 µM). The MIC against Staphylococcus aureus [5] stood at 1.2 µg/mL (≈ 4.34 µM); against Enterococcus faecium [4], 2.5 µg/mL (≈ 9.05 µM).
